In patent US10221163B2 (priority 2015, dated 2019):
Like-named read-outs stand apart in the source and are kept apart here.

Columns and labels:
[1] = molecular target: IMP-1 (Serratia marcescens, UniProt P52699); assay: biochemical; type: biochemical; details: fluorescence assay, CCF2-FA substrate, 2 pM enzyme, 2 hours at 25° C.; read-out: IMP-1 IC50
How it was run: (§1)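 Semi-log dose-response curves, fitted with a 4-parameter model, gave IC50s. The underlying signal was CCF2-FA fluorescence following 2 hours at 25° C with enzyme, substrate and inhibitor combined.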

[2] = molecular target: NDM-1 (Klebsiella pneumoniae, UniProt C7C422); assay: biochemical; type: biochemical; details: fluorescence assay, CCF2-FA substrate, 1 pM enzyme, 2 hours at 25° C.; read-out: NDM-1 IC50
How it was run: as §1

[3] = molecular target: VIM-1 (Pseudomonas aeruginosa (strain ATCC 15692 / DSM 22644 / CIP 104116 / JCM 14847 / LMG 12228 / 1C / PRS 101 / PAO1), UniProt A0A0F7KYQ8); assay: biochemical; details: CCF2-FA substrate, 30 pM enzyme, 2 hours at 25° C.
How it was run: as §1

[4] = system: Escherichia coli expressing NDM-1 (CLB30005, CLB30016); type: cell-based; details: with imipenem 1 μg/ml; for Escherichia coli expressing NDM-1 (CLB30016) MITC95: 95% inhibition of bacterial growth; for Escherichia coli MITC95: NDM-1 strain, 95% inhibition of growth
How it was run: (§2)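 Imipenem 1 μg/ml + inhibitor; MBL-expressing clinical strains in 1.1×CAMHB, inoculum from saline suspension diluted 1:100; 35° C, 22–24 h; absorbance read-out.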

[5] = system: Klebsiella pneumoniae expressing VIM-1 (IHMA599644); type: cell-based; details: for Klebsiella pneumoniae expressing VIM-1 (IHMA599644) MITC95: with imipenem 1 μg/ml, 95% inhibition of bacterial growth; for Klebsiella pneumoniae MITC95: VIM-1 strain IHMA599644, with imipenem 1 μg/ml, 95% inhibition of growth
How it was run: as §2

[6] = system: Serratia marcescens expressing IMP-1 (CL5741); type: cell-based; details: for Serratia marcescens expressing IMP-1 (CL5741) MITC95: with imipenem 1 μg/ml, 95% inhibition of bacterial growth; for Serratia marcescens MITC95: IMP-1 strain CL5741, with imipenem 1 μg/ml, 95% inhibition of growth
How it was run: as §2

[7] = system: Pseudomonas aeruginosa efflux+ (MB9798), IMP-1; type: cell-based; parameters: Concentration of metallo-β-lactamase inhibitor which restores susceptibility of efflux + (MB9798) strain to imipenem: unit not given here; details: C, D serine β-lactamase inhibitor closely related to relebactam; for P. aeruginosa expressing IMP-1, efflux + (MB9798) MITC95: concentration restoring susceptibility to imipenem at 2 μg/mL in the presence of a class A; for Concentration of metallo-β-lactamase inhibitor which restores susceptibility of efflux + (MB9798) strain to imipenem: imipenem at 2 μg/mL, in the presence of a class A
How it was run: (§3)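 Steps: add fixed imipenem and/or ceftazidime (usually CLSI breakpoint) and fixed AmpC-directed class A/C inhibitor to microbroth MIC wells; titrate MBL inhibitor; record concentration regaining susceptibility for each PAO1-derived strain; divide efflux+ by efflux− value.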

[8] = system: Pseudomonas aeruginosa efflux− (MB9799), IMP-1; type: cell-based; details: C, D serine β-lactamase inhibitor closely related to relebactam; for P. aeruginosa expressing IMP-1, efflux − (MB9799) MITC95: concentration restoring susceptibility to imipenem at 2 μg/mL in the presence of a class A; for Concentration of metallo-β-lactamase inhibitor which restores susceptibility of efflux − (MB9799) strain to imipenem: imipenem at 2 μg/mL, in the presence of a class A
How it was run: as §3

[9] = system: Pseudomonas aeruginosa MB9798 vs MB9799
How it was run: as §3

[10] = fluorescence assay, read-out: VIM-1 IC50
[11] = ratio MITC95 PA_9798/MITC95 PA_9799
[12] = fold difference between efflux+ (MB9798) and efflux− (MB9799) strains, imipenem at 2 μg/mL

Sequence of IMP-1 (P52699 whole entry, looked up, species assumed): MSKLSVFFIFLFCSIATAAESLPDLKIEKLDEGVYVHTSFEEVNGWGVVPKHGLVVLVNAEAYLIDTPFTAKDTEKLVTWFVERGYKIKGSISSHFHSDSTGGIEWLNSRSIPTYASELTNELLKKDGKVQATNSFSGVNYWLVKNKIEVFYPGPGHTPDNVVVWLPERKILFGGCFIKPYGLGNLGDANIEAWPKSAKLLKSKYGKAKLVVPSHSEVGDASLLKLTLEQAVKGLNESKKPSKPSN
Sequence of NDM-1 (C7C422 whole entry, looked up, species assumed): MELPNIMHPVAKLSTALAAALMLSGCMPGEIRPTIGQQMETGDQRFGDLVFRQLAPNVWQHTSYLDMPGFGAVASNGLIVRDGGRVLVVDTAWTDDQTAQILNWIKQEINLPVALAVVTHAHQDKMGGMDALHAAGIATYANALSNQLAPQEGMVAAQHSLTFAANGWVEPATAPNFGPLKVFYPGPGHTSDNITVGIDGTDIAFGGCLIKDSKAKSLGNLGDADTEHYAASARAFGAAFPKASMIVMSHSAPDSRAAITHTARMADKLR

SMILES | IC50 [1] | IC50 [2] | IC50 [3, 10] | Escherichia coli expressing NDM-1 (CLB30016) MITC95 [4] | Klebsiella pneumoniae expressing VIM-1 (IHMA599644) MITC95 [5] | Serratia marcescens expressing IMP-1 (CL5741) MITC95 [6] | P. aeruginosa expressing IMP-1, efflux + (MB9798) MITC95 [7] | P. aeruginosa expressing IMP-1, efflux − (MB9799) MITC95 [8] | Efflux ratio [9, 11] | IC50 ([3]; VIM-1 IC50, fluorescence assay) | Escherichia coli MITC95 [4] | Klebsiella pneumoniae MITC95 [5] | Serratia marcescens MITC95 [6] | Concentration of metallo-β-lactamase inhibitor which restores susceptibility of efflux + (MB9798) strain to imipenem [7] | Concentration of metallo-β-lactamase inhibitor which restores susceptibility of efflux − (MB9799) strain to imipenem [8] | Efflux ratio [9, 12]
NS(=O)(=O)c1c(S(=O)(=O)N[C@@H]2CCNC2)ccc(-c2cccc3c2OC(F)(F)O3)c1-c1nnn[nH]1 [Example 131, (R)-4-(2,2-difluorobenzo[d][1,3]dioxol-4-yl)-N1-(pyrrolidin-3-yl)-3-(1H-tetrazol-5-yl)benzene-1,2-disulfonamide] | 1830 pM | 275 pM | 120 pM | 1.563 µM | 1.563 µM | 3.125 µM | 12.5 µM | 0.7813 µM | 16.00 |  |  |  |  |  |  | 
Nc1nc2c(-c3ccc(S(=O)(=O)N[C@@H]4CNC[C@H]4O)c(S(N)(=O)=O)c3-c3nnn[nH]3)cccc2[nH]1 [Example 171, 4-(2-amino-1H-benzo[d]imidazol-4-yl)-N^1-((3R,4R)-4-hydroxypyrrolidin-3-yl)-3-(1H-tetrazol-5-yl)benzene-1,2-disulfonamide] | 1390 pM | 125 pM |  | 0.7813 µM | 3.125 µM | 1.563 µM | 0.7813 µM | 1.563 µM | 0.50 | 506 pM |  |  |  |  |  | 
NCC(CN)NS(=O)(=O)c1ccc(-c2ccnc(-c3cnc(N)[nH]3)c2)c(-c2nnn[nH]2)c1S(N)(=O)=O [Example 437, 4-(2-(2-Amino-1H-imidazol-5-yl)pyridin-4-yl)-N^1-(1,3-diaminopropan-2-yl)-3-(1H-tetrazol-5-yl)benzene-1,2-disulfonamide] | 2410 pM | 1180 pM |  |  |  |  |  |  |  | 952 pM | 0.7813 µM | 3.125 µM | 3.125 µM | 1.563 | 0.7813 | 2.00
NCCNS(=O)(=O)c1ccc(-c2cccc3sc(CN)nc23)c(-c2nn[nH]n2)c1S(N)(=O)=O [Example 345, N^1-(2-aminoethyl)-4-(2-(aminomethyl)benzo[d]thiazol-4-yl)-3-(2H -tetrazol-5-yl)benzene-1,2-disulfonamide] | 676 pM | 193 pM | 129 pM |  |  |  | 0.7813 µM | 0.7813 µM | 1.00 |  | 0.5859 µM | 0.7813 µM | 0.7813 µM |  |  | 
CN(CCc1ccncc1)S(=O)(=O)c1ccc(-c2cccc3sc(N)nc23)c(-c2nnn[nH]2)c1S(N)(=O)=O.O=C(O)C(F)(F)F [Example 100, 4-(2-(4-(2-aminobenzo[d]thiazol-4-yl)-N-methyl-2-sulfamoyl-3-(1H-tetrazol-5-yl)phenylsulfonamido)ethyl)pyridin-1-ium 2,2,2-trifluoroacetate] | 3260 pM | 3880 pM |  | 50 µM | 200 µM | 25 µM | 200 µM | 6.25 µM | 32.00 | 12600 pM |  |  |  |  |  | 
NC[C@@H](N)CNS(=O)(=O)c1ccc(-c2ccc(N)nc2)c(-c2nn[nH]n2)c1S(N)(=O)=O [Example 416] | 1340 pM | 918 pM | 680 pM |  |  |  |  |  |  |  | 0.3906 µM | 6.25 µM | 1.563 µM | 3.125 | 3.125 | 1.00
Cn1c(N)nc2c(-c3ccc(S(=O)(=O)N4CCNCC4)c(S(N)(=O)=O)c3-c3nn[nH]n3)cccc21 [Example 158, 3-(2-amino-1-methyl-1H-benzo[d]imidazol-4-yl)-6-(piperazin-1-ylsulfonyl)-2-(2H-tetrazol-5-yl)benzenesulfonamide] | 1710 pM | 601 pM |  | 0.25 µM | 1.781 µM | 0.8906 µM | 3.125 µM | 0.8906 µM | 3.51 | 1270 pM |  |  |  |  |  | 
Nc1nc2c(-c3ccc(S(=O)(=O)NCC4(F)CNC4)c(S(N)(=O)=O)c3-c3nnn[nH]3)cccc2s1 [Example 46, 4-(2-amino-1,3-benzothiazol-4-yl)-N^1-[(3-fluoroazetidin-3-yl)methyl]-3-(1H-tetrazol-5-yl)benzene-1,2-disulfonamide] | 289 pM | 57.2 pM | 321 pM | 6.25 µM | 3.125 µM | 1.563 µM | 0.7813 µM | 1.563 µM | 0.50 |  |  |  |  |  |  | 
C[C@H](CN)NS(=O)(=O)c1ccc(-c2cncc(N)c2)c(-c2nn[nH]n2)c1S(N)(=O)=O [Example 221, (R)—N1-(1-aminopropan-2-yl)-4-(5-aminopyridin-3-yl)-3-(2H-tetrazol-5-yl)benzene-1,2-disulfonamide] | 688 pM | 281 pM | 152 pM | 1.563 µM | 6.25 µM | 1.563 µM | 1.563 µM | 1.563 µM | 1.00 |  |  |  |  |  |  | 
